Laboratory results reported in patent US20090281126A1, “Organic Compounds” (Novartis AG, priority 2006, published 2009).

Legend:
[1] = molecular target: T1, human A3 receptors (Homo sapiens, UniProt P0DMS8); test: A3 binding assay ([125I]-AB-MECA radioligand, CHO membranes); conditions: [125I]-AB-MECA 0.25 nM
T1 construct: expressed in transfected cells; membranes prepared in house
T1 sequence (P0DMS8 1-318): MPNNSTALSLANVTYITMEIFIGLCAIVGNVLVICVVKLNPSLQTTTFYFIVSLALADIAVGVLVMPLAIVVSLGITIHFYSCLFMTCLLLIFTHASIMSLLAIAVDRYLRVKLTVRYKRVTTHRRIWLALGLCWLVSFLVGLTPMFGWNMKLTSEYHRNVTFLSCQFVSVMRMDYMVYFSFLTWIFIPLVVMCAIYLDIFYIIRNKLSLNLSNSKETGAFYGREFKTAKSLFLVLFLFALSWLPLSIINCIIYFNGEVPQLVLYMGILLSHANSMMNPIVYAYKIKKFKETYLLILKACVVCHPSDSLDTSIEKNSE
Method: Compounds in the present invention were tested in an A3 binding assay using the iodinated ligand [^125I]-AB-MECA with membranes prepared from CHO cells stably expressing human A3 receptors.
Radioligand binding to the CHO A3 membranes was performed using radio-labelled agonist [^125I]-AB-MECA at a concentration range of 0.002-5 nM to obtain saturation binding. Binding experiments were performed in duplicate using 2.5 μg membrane in a total volume of 200 μL of assay buffer. The non-specific binding was determined in the presence of 10 μM of the agonist I-AB-MECA.
The assay was performed in a final volume of 200 μL/well, in a U-bottomed polypropylene 96-well plate. […] Total binding was determined using 50 μL vehicle. Non-specific binding was determined using 50 μL of 40 μM I-AB-MECA, to give a final assay concentration of 10 μM. • 50 μL [^125I]-AB-MECA at a concentration of 1 nM (4×), to give a final assay concentration of 0.25 nM. • 100 μL CHO A3 membranes at a concentration of 25 μg/mL in assay buffer containing 4 U/mL adenosine deamin ase (ADA) (final assay concentration of 2 U/mL), to give a final assay concentration of 2.5 μg/well.
Compound dilution were prepared on a Biomek 2000 to give a series of 10 concentrations from 40-0.002 μM (4×). […] Total binding was determined in the absence of I-AB-MECA and non specific binding in the presence of 10 μM I-AB-MECA. […]

[2] = molecular target: T2, adenosine A3 receptors (Homo sapiens, UniProt P0DMS8); test: A3 [35S]-GTPGammaS binding functional assay (SPA, CHO membranes); assay type: biochemical; conditions: agonist stimulation of [35S]-GTPγS binding
T2 construct: expressed in transfected cells; membranes prepared in house
T2 sequence (P0DMS8 1-318): T1 sequence (P0DMS8 1-318)
Method: To establish the functional response to compounds of this invention an assay was carried out measuring A3 agonist stimulation of [^35S]-GTPγS binding in membranes prepared from CHO cells stably expressing adenosine A3 receptors. The agonist-induced stimulation of binding of [^35S]-GTPγS to activated G proteins has been used as a functional assay for a variety of receptors, including adenosine receptors. See Lorenzen et al., Mol Pharmacol, Vol. 49, pp. 915-926 (1996); and Jacobson et al., Drug Dev Res Vol. 37, p. 131 (1996).
The conventional GTPγS binding assay described by Lorenzen et al (1996), supra, is a filtration based method and thus requires a separation step; we have modified this method to run as a SPA format so that it can be used in a semi-automated and homogenous formal. In the SPA assay membranes are captured by wheatgerm agglutinin (WGA) SPA beads, through a specific interaction between WGA and carbohydrate residues of glycoproteins on the surfaces for the membranes. Upon receptor stimulation, [^35S]-GTPγS binds specifically to the alpha subunit of the G-protein thus bringing the [^35S]-GTPγS into close proximity with the SPA beads. Emitted β particles from the [^35S]-GTPγS excite the scintillant in the beads and produce light.
The assay was performed in a final volume of 250 μL/well in a white non-binding surface 96-well Optiplate. […]

[3] = as described in WO 95/02604, cited from earlier work

Row | Ki [1] [nM] | EC50 [2] [nM] | Structure (SMILES) | increase in basal or systemic blood pressure ([3]; administration of IB-MECA) [%] | basal or systemic blood pressure after administration ([3]; from about 70 mmHg)
1 | 0.91 | 11 | CC(=O)N[C@H]1C[C@@H](n2cnc3c(NCc4cccc(I)c4)nc(Cl)nc32)[C@H](O)[C@@H]1O [Example 1, N-{(1S,2R,3S,4R)-4-[2-Chloro-6-(3-iodobenzylamino)-purin-9-yl]-2,3-dihydroxycyclopentyl}-acetamide] | – | –
2 | – | – | CNC(=O)[C@H]1O[C@@H](n2cnc3c(NCc4cccc(I)c4)ncnc32)[C@H](O)[C@@H]1O [IB-MECA] | 10 to 30 | about 90 mmHg
